Experiments:
U2OS [1] = experiment: cell viability relative to DMSO; higher = less toxic; conditions: 72 h
Vero E6 [2] = experiment: as above; conditions: 72 h
Calu-3 [3] = experiment: as above; conditions: 72 h
HepG2 [4] = experiment: as above; conditions: 72 h
Caco-2 [5] = experiment: as above; conditions: 72 h
[6] = system: A549-ACE2 infected with SARS-CoV-2; experiment: SARS-CoV-2 infection rate relative to DMSO; higher = more infection; conditions: 24 h
A549-ACE2 = experiment: drug-induced phospholipidosis relative to tamoxifen; higher = more phospholipidosis
[7] = system: A549-ACE2 infected with SARS-CoV-2; experiment: cell count relative to DMSO; higher = less toxic; conditions: 24 h
U2OS [8] = experiment: drug sensitivity score (DSS) for viability; higher = more toxic; extreme values may be limits of the assay; conditions: 72 h
Vero E6 [9] = experiment: as above; conditions: 72 h
Calu-3 [10] = experiment: as above; conditions: 72 h
HepG2 [11] = experiment: as above; conditions: 72 h
Caco-2 [12] = experiment: as above; conditions: 72 h
[13] = system: A549-ACE2 infected with SARS-CoV-2; experiment: morphology score (similarity to uninfected cells); higher = more like uninfected cells; conditions: 24 h
Vero E6 [14] = experiment: relative viability EC50 (midpoint between 100% and the lowest measured viability); higher = less toxic; conditions: 72 h
Calu-3 [15] = experiment: as above; conditions: 72 h
HepG2 [16] = experiment: as above; conditions: 72 h
Caco-2 [17] = experiment: as above; conditions: 72 h
U2OS [18] = experiment: as above; conditions: 72 h

CN(C)c1ccc(-c2nc3c(N4CCN(CC(=O)Nc5nccs5)CC4)c(Cl)cnc3[nH]2)cc1
Conditions | SARS-CoV-2 infection rate, [6] [%] | cell count, [7] [%] | cell viability, Caco-2 [5] [%] | cell viability, Calu-3 [3] [%] | cell viability, HepG2 [4] [%] | cell viability, U2OS [1] [%] | cell viability, Vero E6 [2] [%] | morphology score, [13]
1 nM | – | – | 99.6 | 102 | 105 | 97.1 | 94.5 | –
10 nM | – | – | 103 | 95.7 | 105 | 90.9 | 97.6 | –
100 nM | – | – | 96.4 | 91.3 | 92 | 98 | 88.7 | –
0.3 µM | 94 | 101 | – | – | – | – | – | 0.26
1000 nM | – | – | 94.7 | 109 | 99.9 | 89.3 | 95.8 | –
3 µM | 101 | 97 | – | – | – | – | – | -0.1
10000 nM | – | – | 98.7 | 91.5 | 98.2 | 67.4 | 100 | –
10 µM | 96 | 97 | – | – | – | – | – | 0.16
30 µM | 65 | 83 | – | – | – | – | – | 0.47

drug-induced phospholipidosis [%], A549-ACE2
Conditions | 0.3 µM | 0.833333 µM | 3.33333 µM | 6.66667 µM | 10 µM | 30 µM
24 h | 4.66 | -0.19 | 5.5 | 0.89 | 5.75 | 7.19
48 h | 6.88 | 1.34 | 2.05 | 1.71 | 1.43 | 6.09
72 h | 3.52 | -6.12 | -1.19 | 0.0519 | -2.06 | 6.76

Conditions | drug sensitivity score | relative viability EC50 [µM]
Caco-2 [12] | 0 | –
Caco-2 [17] | – | > 10
Calu-3 [10] | 0 | –
Calu-3 [15] | – | > 10
HepG2 [11] | 0 | –
HepG2 [16] | – | > 10
U2OS [8] | 2.8 | –
Vero E6 [9] | 0 | –
Vero E6 [14] | – | > 10

COC(=O)c1cnn(-c2ccc(F)cc2F)c1/C=N/NC(=S)NC(C)(C)C
cell viability [%]
Conditions | Caco-2 [5] | Calu-3 [3] | HepG2 [4] | U2OS [1] | Vero E6 [2]
1 nM | 102 | 101 | 112 | 98.6 | 106
10 nM | 90.6 | 101 | 107 | 98.3 | 101
100 nM | 102 | 97.4 | 98.4 | 104 | 95.9
1000 nM | 105 | 89.1 | 94.3 | 98 | 96.1
10000 nM | 93.9 | 89.6 | 105 | 103 | 98.8

Conditions | drug sensitivity score | relative viability EC50 [µM]
Caco-2 [12] | 0 | –
Caco-2 [17] | – | > 10
Calu-3 [10] | 0.3 | –
Calu-3 [15] | – | > 10
HepG2 [11] | 0 | –
HepG2 [16] | – | > 10
U2OS [8] | 0 | –
U2OS [18] | – | > 10
Vero E6 [9] | 0 | –
Vero E6 [14] | – | > 10

CN1C[C@H](CNC(=O)OCc2ccccc2)C[C@@H]2c3cccc4c3c(cn4C)C[C@H]21 [metergoline]
cell viability [%]
Conditions | Caco-2 [5] | Calu-3 [3] | HepG2 [4] | U2OS [1] | Vero E6 [2]
1 nM | 116 | 101 | 101 | 95.4 | 105
10 nM | 91.3 | 92.2 | 98.5 | 99.1 | 105
100 nM | 101 | 101 | 100 | 104 | 95.2
1000 nM | 88.1 | 89.8 | 96.9 | 96.4 | 94
10000 nM | 99.6 | 104 | 84.6 | 95.8 | 84.2

Conditions | drug sensitivity score | relative viability EC50 [µM]
Caco-2 [12] | 0 | –
Caco-2 [17] | – | > 10
Calu-3 [10] | 0 | –
Calu-3 [15] | – | > 10
HepG2 [11] | 0.6 | –
HepG2 [16] | – | > 10
U2OS [8] | 0 | –
U2OS [18] | – | > 10
Vero E6 [9] | 0.4 | –
Vero E6 [14] | – | > 10

N[C@@H](CC(=O)N1CCn2c(nnc2C(F)(F)F)C1)Cc1cc(F)c(F)cc1F [sitagliptin]
cell viability [%]
Conditions | Caco-2 [5] | Calu-3 [3] | HepG2 [4] | U2OS [1] | Vero E6 [2]
1 nM | 108 | 107 | 89.2 | 97.5 | 97.7
10 nM | 99.5 | 100 | 98.9 | 94.6 | 106
100 nM | 97.1 | 99.5 | 91.1 | 97.4 | 90.7
1000 nM | 102 | 106 | 97.5 | 94.8 | 107
10000 nM | 84.1 | 97.7 | 88.6 | 97.7 | 102

Conditions | drug sensitivity score | relative viability EC50 [µM]
Caco-2 [12] | 0.2 | –
Caco-2 [17] | – | > 10
Calu-3 [10] | 0 | –
Calu-3 [15] | – | > 10
HepG2 [11] | 0 | –
HepG2 [16] | – | > 10
U2OS [8] | 0 | –
U2OS [18] | – | > 10
Vero E6 [9] | 0 | –
Vero E6 [14] | – | > 10

COc1ccc(CN2C(=O)C(=O)c3cc(OC(F)(F)F)ccc32)cc1
cell viability [%]
Conditions | Caco-2 [5] | Calu-3 [3] | HepG2 [4] | U2OS [1] | Vero E6 [2]
1 nM | 90.2 | 98.3 | 97.7 | 99 | 107
10 nM | 100 | 96.7 | 108 | 99.7 | 107
100 nM | 89.8 | 110 | 109 | 92.8 | 103
1000 nM | 85.5 | 83 | 103 | 25.8 | 86
10000 nM | 38.8 | 41.7 | 41.8 | 13.4 | 28.8

Conditions | drug sensitivity score | relative viability EC50 [µM]
Caco-2 [12] | 5.4 | –
Caco-2 [17] | – | 1.66
Calu-3 [10] | 5.7 | –
Calu-3 [15] | – | 1.43
HepG2 [11] | 2.9 | –
HepG2 [16] | – | 3.43
U2OS [8] | 14.6 | –
U2OS [18] | – | 0.374
Vero E6 [9] | 6.2 | –
Vero E6 [14] | – | 1.75

CC(=O)[O-].CC(=O)[O-].N.NC1CCCCC1.[Cl-].[Cl-].[Pt+4] [satraplatin]
Conditions | SARS-CoV-2 infection rate, [6] [%] | cell count, [7] [%] | cell viability, Caco-2 [5] [%] | cell viability, Calu-3 [3] [%] | cell viability, HepG2 [4] [%] | cell viability, U2OS [1] [%] | cell viability, Vero E6 [2] [%] | morphology score, [13]
1 nM | – | – | 95.7 | 113 | 105 | 104 | 106 | –
10 nM | – | – | 99.7 | 119 | 96.5 | 109 | 103 | –
100 nM | – | – | 93.5 | 96.6 | 102 | 103 | 93.4 | –
0.1 µM | 107 | 107 | – | – | – | – | – | 0.11
0.3 µM | 108 | 94 | – | – | – | – | – | -0.19
1000 nM | – | – | 93.3 | 94.8 | 73.8 | 105 | 91.7 | –
1 µM | 90 | 98 | – | – | – | – | – | 0.26
3 µM | 97 | 93 | – | – | – | – | – | 0.04
10000 nM | – | – | 42 | 69 | 36.1 | 8.5 | 68.1 | –

drug-induced phospholipidosis [%], A549-ACE2
Conditions | 0.3 µM | 0.833333 µM | 3.33333 µM | 6.66667 µM | 10 µM
24 h | 3.84 | 0.69 | 3.32 | 0.26 | 5.28
48 h | 3.35 | -1.19 | -0.57 | -1.29 | -2.3
72 h | 2.49 | -2.74 | 0.684 | – | –

Conditions | drug sensitivity score | relative viability EC50 [µM]
Caco-2 [12] | 4.3 | –
Caco-2 [17] | – | 2.21
Calu-3 [10] | 2.2 | –
HepG2 [11] | 7 | –
HepG2 [16] | – | 1.16
U2OS [8] | 4.7 | –
U2OS [18] | – | 3.44
Vero E6 [9] | 2.4 | –

Source: the supplement of paper PMC13380429
